The text below walks through data of patent US20100280024A1, “RENIN INHIBITORS” (priority 2007, published 2010).

Experiment [1] has as its target T1, Renin (Homo sapiens, UniProt P00797).
T1 sequence (P00797 67-406): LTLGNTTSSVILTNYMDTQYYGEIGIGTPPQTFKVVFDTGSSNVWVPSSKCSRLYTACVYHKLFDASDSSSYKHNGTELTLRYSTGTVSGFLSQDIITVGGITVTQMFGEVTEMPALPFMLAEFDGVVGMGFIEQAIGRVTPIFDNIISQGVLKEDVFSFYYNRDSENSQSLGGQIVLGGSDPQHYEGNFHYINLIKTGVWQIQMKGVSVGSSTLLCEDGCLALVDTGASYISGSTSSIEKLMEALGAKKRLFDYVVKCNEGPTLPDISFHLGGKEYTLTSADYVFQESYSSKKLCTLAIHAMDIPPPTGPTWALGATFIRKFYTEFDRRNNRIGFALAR
The experiment is described as follows: In-vitro renin inhibition assay (modified Cayman renin inhibitor screening assay, fluorescence). In kind it is biochemical. Also on record: purchased Cayman 10006270. Particulars: 37° C., 30 mins; for inhibition at 0.1 µM: read-out: Renin inhibition (percent inhibition of renin activity) at 0.1 μM; for inhibition at 1 µM: read-out: Renin inhibition (percent inhibition of renin activity) at 1 μM. The protocol:
In-Vitro Renin Inhibition Assay
The enzymatic in vitro assay was performed in 96 well polypropylene plate (Nunc), using a modified Renin inhibitor screening assay protocol (Cayman, cat no: 10006270). The reaction system comprised assay buffer containing 50 mM Tris-HCL, pH=8.0 & 100 mM sodium chloride, human recombinant renin (1:20 diluted with fixed activity), synthetic renin substrates (9.5 μM) and different concentrations of renin inhibitors in DMSO in a total reaction system of 100 μl. The entire incubation mixture were incubated at 37° C. for 30 mins and the fluorescence was read in kinetic mode using excitation wavelengths of 335-345 nm and emission wavelengths of 485-510 nm. Enzyme inhibition was determined by percent inhibition of renin activity.

Experiment [2] has as its target T1, Renin. Nature of the experiment: Renin inhibition in human plasma (IC50). In kind it is biochemical. Also on record: from tissue; host or cells: human plasma. The text has this:
Following table represents measured IC50 values of the selected compounds for its Renin inhibition in human plasma.

pIC50: −log10 of the molar value. Where a name gives a salt, the structure may show the parent alone.

Turning to `Cc1cc(Cl)c(OCCOc2ccc(CC(CN)C(=O)N3CCCc4cc(OC(F)(F)F)ccc43)cc2)c(Cl)c1` (centres unmarked) [Example 27, 3-Amino-2-{4-[2-(2,6-dichloro-4-methyl-phenoxy)-ethoxy]-benzyl}-1-(6-trifluoromethoxy-3,4-dihydro-2H-quinolin-1-yl)-propan-1-one hydrochloride], in experiment [1] (compound concentration 0.1 μM), the inhibition at 0.1 µM turned out to be 100%. In addition, in experiment [1] (compound concentration 1 μM), the inhibition at 1 µM stood at 99.2%. Moreover, the pIC50 in experiment [2] was 9.04.
The matching figures for `COCCCOc1ccc2c(c1)CCCN2C(=O)C(CN)Cc1ccc(OCCOc2c(Cl)cc(C)cc2Cl)cc1` (centres unmarked) [Example 24, 3-Amino-2-{4-[2-(2,6-dichloro-4-methyl-phenoxy)-ethoxy]-benzyl}-1-[6-(3-methoxy-propoxy)-3,4-dihydro-2H-quinolin-1-yl]-propan-1-one]: 90.7%, 93.2% and 7.59.
On to `NCC(Cc1ccc(OCCOc2c(Cl)cccc2Cl)cc1)C(=O)N1CCCc2cc(C(F)(F)F)ccc21` (centres unmarked) [Example 31, 3-Amino-2-{4-[2-(2,6-dichloro-phenoxy)-ethoxy]-benzyl}-1-(6-trifluoromethyl-3,4-dihydro-2H-quinolin-1-yl)-propan-1-one hydrochloride], for which the inhibition at 0.1 µM in experiment [1] (compound concentration 0.1 μM) is 94.1%. Also, the inhibition at 1 µM in experiment [1] (compound concentration 1 μM) came out at 102%. Besides, the pIC50 in experiment [2] is 7.54.
Regarding `COCC1CCCN(C(=O)C(CN)Cc2ccc(OCCOc3c(Cl)cc(C)cc3Cl)cc2)C1` (centres unmarked) [Example 26, 2-Aminomethyl-3-{4-[2-(2,6-dichloro-4-methyl-phenoxy)-ethoxy]-phenyl}-1-(3-methoxymethyl-piperidin-1-yl)-propan-1-one hydrochloride], the inhibition at 0.1 µM in experiment [1] (compound concentration 0.1 μM) is 92.8%. For the same compound, the inhibition at 1 µM in experiment [1] (compound concentration 1 μM) is 93.9%. Also, the pIC50 in experiment [2] is 7.56.
Regarding `NCC(Cc1ccc(OCCOc2c(Cl)cccc2Cl)cc1)C(=O)N1CCCc2cc(OC(F)(F)F)ccc21` (centres unmarked) [Example 32, 3-Amino-2-{4-[2-(2,6-dichloro-phenoxy)-ethoxy]-benzyl}-1-(6-trifluoromethoxy-3,4-dihydro-2H-quinolin-1-yl)-propan-1-one hydrochloride], the inhibition at 0.1 µM in experiment [1] (compound concentration 0.1 μM) was found to be 100%. Besides, the pIC50 in experiment [2] was 9.08.
Consider `Cc1cc(Cl)c(OCCOc2ccc(CC(CN)C(=O)N3CCCc4cc(Br)ccc43)cc2)c(Cl)c1` (centres unmarked) [Example 6, 3-Amino-1-(6-bromo-3,4-dihydro-2H-quinolin-1-yl)-2-{4-[2-(2,6-dichloro-4-methyl-phenoxy)-ethoxy]-benzyl}-propan-1-one], for which, in experiment [1] (compound concentration 1 μM), the inhibition at 1 µM worked out at 86.5%.
As to `Cc1cc(Cl)c(OCCOc2ccc(CC(CN)C(=O)N3CCCc4ccccc43)cc2)c(Cl)c1` (centres unmarked) [Example 2, 3-Amino-2-{4-[2-(2,6-dichloro-4-methyl-phenoxy)-ethoxy]-benzyl}-1-(3,4-dihydro-2H-quinolin-1-yl)-propan-1-one], the inhibition at 0.1 µM in experiment [1] (compound concentration 0.1 μM) turned out to be 90.5%. The inhibition at 1 µM in experiment [1] (compound concentration 1 μM) was determined as 97.3%.
The matching figures for `Cc1cc(Cl)c(OCCOc2ccc(CC(CN)C(=O)N3CCOCC3)cc2)c(Cl)c1` (centres unmarked) [Example 25, 3-Amino-2-{4-[2-(2,6-dichloro-4-methyl-phenoxy)-ethoxy]-benzyl}-1-morpholin-4-yl-propan-1-one hydrochloride]: 45.1% and 76.4%.
On to `Cc1cc(Cl)c(OCCOc2ccc(CC(CN)C(=O)N3CCCc4cccc(F)c43)cc2)c(Cl)c1` (centres unmarked) [Example 11, 3-Amino-2-{4-[2-(2,6-dichloro-4-methyl-phenoxy)-ethoxy]-benzyl}-1-(8-fluoro-3,4-dihydro-2H-quinolin-1-yl)-propan-1-one], for which, in experiment [1] (compound concentration 1 μM), the inhibition at 1 µM was found to be 68.5%.
`COc1ccc2c(c1)CCCN2C(=O)C(CN)Cc1ccc(OCCOc2c(Cl)cc(C)cc2Cl)cc1` (centres unmarked) [Example 13, 3-Amino-2-{4-[2-(2,6-dichloro-4-methyl-phenoxy)-ethoxy]-benzyl}-1-(6-methoxy-3,4-dihydro-2H-quinolin-1-yl)-propan-1-one]: in experiment [1] (compound concentration 0.1 μM), the inhibition at 0.1 µM was determined as 32.1%. In addition, in experiment [1] (compound concentration 1 μM), the inhibition at 1 µM was 96.5%.
Turning to `COc1cc2c(cc1OC)CN(C(=O)C(CN)Cc1ccc(OCCOc3c(Cl)cc(C)cc3Cl)cc1)CC2` (centres unmarked) [Example 17, 2-Aminomethyl-3-{4-[2-(2,6-dichloro-4-methyl-phenoxy)-ethoxy]-phenyl}-1-(6,7-dimethoxy-3,4-dihydro-1H-isoquinolin-2-yl)-propan-1-one], in experiment [1] (compound concentration 1 μM), the inhibition at 1 µM was determined as 53.6%.
For the compound `COc1cc(CC(CN)C(=O)N2CCCc3ccccc32)ccc1OCCOc1c(Cl)cc(C)cc1Cl` (centres unmarked) [Example 48, 3-Amino-2-{4-[2-(2,6-dichloro-4-methyl-phenoxy)-ethoxy]-3-methoxy-benzyl}-1-(3,4-dihydro-2H-quinolin-1-yl)-propan-1-one hydrochloride], in experiment [1] (compound concentration 1 μM), the inhibition at 1 µM is 58.5%.
For `Cc1cc(Cl)c(OCCOc2ccc(CC(CN)C(=O)N3CCCCC3)cc2)c(Cl)c1` (centres unmarked) [Example 12, 3-Amino-2-{4-[2-(2,6-dichloro-4-methyl-phenoxy)-ethoxy]-benzyl}-1-piperidin-1-yl-propan-1-one], the inhibition at 0.1 µM in experiment [1] (compound concentration 0.1 μM) came out at 77%. The inhibition at 1 µM in experiment [1] (compound concentration 1 μM) amounted to 90.7%. Further, the pIC50 in experiment [2] is 7.15.
Turning to `Cc1ccc(OCCOc2ccc(CC(CN)C(=O)N3CCCc4cc(C(F)(F)F)ccc43)cc2)c(Cl)c1` (centres unmarked) [Example 33, 3-Amino-2-{4-[2-(2-chloro-4-methyl-phenoxy)-ethoxy]-benzyl}-1-(6-trifluoromethyl-3,4-dihydro-2H-quinolin-1-yl)-propan-1-one], in experiment [1] (compound concentration 0.1 μM), the inhibition at 0.1 µM came to 92.9%. In addition, the inhibition at 1 µM in experiment [1] (compound concentration 1 μM) stood at 89.2%.
Consider `Cc1cc(Cl)c(OCCOc2ccc(CC(CN)C(=O)N3CCCc4cc(C(F)(F)F)ccc43)cc2)c(Cl)c1.Cl` (centres unmarked) [Example 15A, 3-Amino-2-{4-[2-(2,6-dichloro-4-methyl-phenoxy)-ethoxy]-benzyl}-1-(6-trifluoromethyl-3,4-dihydro-2H -quinolin-1-yl)-propan-1-one hydrochloride], for which the “Renin inhibition (percent inhibition of renin activity) at 0.1 μM” value in experiment [1] (compound concentration 0.1 μM) is listed as 80.00. The “Renin inhibition (percent inhibition of renin activity) at 1 μM” value in experiment [1] (compound concentration 1 μM) turned out to be 88.0. In experiment [2], this compound gave a negative logarithm of the IC50 (pIC50) of 8.11.
With `Cc1cc(Cl)c(OCCOc2ccc(CC(CN)C(=O)N3CCC(C)CC3)cc2)c(Cl)c1` (centres unmarked) [Example 18, 3-Amino-2-{4-[2-(2,6-dichloro-4-methyl-phenoxy)-ethoxy]-benzyl}-1-(4-methyl-piperidin-1-yl)-propan-1-one], the inhibition at 1 µM in experiment [1] (compound concentration 1 μM) came to 65.8%.
`Cc1cc(Cl)c(OCCOc2ccc(CC(CN)C(=O)N3CCCc4cc(C)ccc43)cc2)c(Cl)c1` (centres unmarked) [Example 16, 3-Amino-2-{4-[2-(2,6-dichloro-4-methyl-phenoxy)-ethoxy]-benzyl}-1-(6-methyl-3,4-dihydro-2H-quinolin-1-yl)-propan-1-one]: the inhibition at 0.1 µM in experiment [1] (compound concentration 0.1 μM) came out at 52.6%. Also, the inhibition at 1 µM in experiment [1] (compound concentration 1 μM) amounted to 87.4%.
